Legend:
Type in all cases: cell-based
[1] = tested on: Mouse myoblast cell line (C2C12); experiment: muscle cell proliferation (microscope, MTS analysis); details: various concentrations, cultured for 4 days, FIGS. 3 and 4
Method: (§1) Mouse myoblast cell line (C2C12) used was purchased from American Type Culture Collection (ATCC). Muscle stem cells were collected from leg muscles of cows, pigs, and chickens, minced, and reacted with 1% Pronase enzyme at 37°C for 2 hours, followed by centrifugation at 1,000 g for 3 minutes. After centrifugation, the supernatant was removed, and the tissue was suspended in Dulbecco's Modified Eagle's Medium (DMEM) supplemented with 1% penicillin/streptomycin (hereinafter referred to as P/S) and 10% fetal bovine serum (hereinafter referred to as FBS), and then the tissue and cells were separated through a 100 µm filter. The separated cells were centrifuged at 1,000 g for 5 minutes, the supernatant was removed, and the cells were suspended in Ham's F10 growth medium containing 1% P/S, 20% FBS, and 5 ng/mL fibroblast growth factor 2 (FGF2), after which cells were transferred to a cell culture dish and cultured at 37°C in the presence of 5% CO2.
(§2) To identify the effect of quercetin on muscle stem cell proliferation, myoblasts and muscle stem cells being cultured in proliferation medium (Ham's F10 containing 1% P/S, 20% FBS, and 5 ng/mL FGF2) were treated with various concentrations of quercetin and cultured for 4 days. To compare proliferation rates, MTS analysis was performed. Myoblasts and muscle stem cells were cultured in a proliferation medium for 4 days, and after removing all of the medium, a culture medium in which proliferation medium and MTS reagent are mixed in a ratio of 8:2 was treated to the cells, followed by a reaction for 1 hour. The reacted culture medium was transferred to a 96-well microplate in a volume of 100 µL, and the absorbance of the culture medium contained in each well was measured at 490 nm using a microplate.
(§3) According to the Experimental Example 2, in order to identify the effect of quercetin on muscle cell proliferation, quercetin was added at various concentrations during the proliferation culture of myoblasts and muscle stem cells, and after culturing for 4 days, observation was made under a microscope, followed by MTS analysis for comparison of the proliferation rate.

[2] = tested on: bovine muscle stem cell; experiment: as above; details: various concentrations, cultured for 4 days, FIGS. 3 and 4
Method: as §1, §2, §3

[3] = tested on: chicken muscle stem cell; experiment: as above; details: various concentrations, cultured for 4 days, FIGS. 3 and 4
Method: as §1, §2, §3

[4] = tested on: porcine muscle stem cell; experiment: as above; details: various concentrations, cultured for 4 days, FIGS. 3 and 4
Method: as §1, §2, §3

[5] = tested on: Mouse myoblast cell line (C2C12); experiment: muscle cell differentiation (microscope, creatine kinase activity)
[6] = tested on: bovine muscle stem cell; experiment: as above; details: 4 days
Method: as §1
(§4) To determine the effect of quercetin on muscle stem cell differentiation, myoblasts and muscle stem cells being differentiated were treated with different concentrations of quercetin in differentiation medium ([…]) and cultured for 4 days. To compare differentiation rates, creatine kinase activity was analyzed. Myoblasts and muscle stem cells were cultured in differentiation medium for 4 days, then all media were removed, followed by washing with phosphate buffer saline (PBS), 200 µL of new saline was added, and the cells were scraped and collected. Afterwards, the cells were disrupted through sonication, and the supernatant was separated through centrifugation. For analysis of creatine kinase activity, a mixture (100 µL of buffer, 10 µL of substrate, and 1 µL of enzyme) was prepared, and 100 µL of the mixture was treated to 10 µL of the supernatant. Afterwards, the absorbance at 340 nm was measured at 20 and 25 minutes after the start of the reaction using a microplate reader, and the value of creatine kinase activity (U/L) was calculated using the following Equation 1. [formula]
(§5) According to the Experimental Example 2, in order to identify the effect of quercetin on muscle cell differentiation, quercetin was added at various concentrations during differentiation culture of myoblasts and muscle stem cells, and after culturing for 4 days, observation was made under a microscope, followed by analysis of creatine kinase activity to compare the differentiation rate.

[7] = tested on: chicken muscle stem cell; experiment: as above; details: 4 days
Method: as §1, §4, §5

[8] = tested on: porcine muscle stem cell; experiment: as above; details: 4 days
Method: as §1, §4, §5

[9] = tested on: muscle differentiation-related factors (MYOD, MYOG, and MYH); experiment: gene and protein expression of muscle differentiation-related factors (real-time PCR, Western blot); details: 10 nM quercetin, FIG. 7
Method: 1 mL of TRIzol (TRIzol™) reagent was added to the cultured cells, and the cells were crushed. 200 µLof chloroform was added to the crushed cells, and centrifugation was performed at 12,000 rpm for 10 minutes. After centrifugation, the upper clear water layer was transferred to a new tube, followed by addition of 500 µLof isopropanol. Afterwards, the mixture was mixed sufficiently and centrifuged at 12,000 rpm for 10 minutes. Thereafter, all supernatants except the RNA pellet were removed, and 1 mL of 70% ethanol was added, followed by washing. Afterwards, all ethanol was removed, and the RNA pellet was dissolved in distilled water containing diethylpyrocarbonate (hereinafter referred to as DEPC). The obtained RNA was quantified using a spectrophotometer, and then 2 µg of total RNA was reacted with reverse transcriptase to synthesize cDNA.
To identify an effect of quercetin on gene expression of muscle differentiation-related factors [myoblast determination protein 1 (hereinafter referred to as MYOD), myogenin (hereinafter referred to as MYOG), and myosin heavy chain (hereinafter referred to as MYH)], real-time PCR was performed. Synthesized cDNA and primers designed using NCBI's primer blast tool; and reagents containing SYBR green fluorescent substance were mixed. Real-time PCR was analyzed via the 7500 real-time PCR from Applied Biosystems.
To determine the effect of quercetin on the protein expression of muscle differentiation-related factors (MYOD, MYOG, and MYH), Western blot was performed. All media of cells being cultured were removed and washed with saline solution. A mixture containing RIPA buffer and 1% protease inhibitor was added to the cells and scraped. After centrifugation at 12,000 rpm for 10 minutes, the supernatant was recovered and quantified using a spectrophotometer. 60 µg of the extracted protein was electrophoresed on a 10% acrylamide gel and transferred to a polyvinylidene fluoride (PVDF) membrane (Milipore). Blocking was performed for 1 hour in tris-buffered saline (TBS) buffer containing 3% skim milk and 1% surfactant (tween-20), and the primary antibody was added. After reacting for 16 hours at 4°C, washing was performed three times for 10 minutes in TBS buffer containing 1% surfactant (Tween-20), followed by a reaction with the secondary antibody for 1 hour at room temperature. Afterwards, washing was performed three times for 10 minutes in TBS buffer containing 1% surfactant (tween-20), followed by development after adding Super Signal West Pico Chemiluminescent Substrate.
According to the above Experimental Example 4, to identify the effect of quercetin on the expression of factors related to muscle differentiation, 10 nM quercetin was added to the process of differentiating myoblasts and muscle stem cells, and gene and protein expression of the factors was analyzed.

[10] = 10 nM and 100 nM treatment groups, FIG. 5

## O=c1c(O)c(-c2ccc(O)c(O)c2)oc2cc(O)cc(O)c12 [quercetin]
[1]
  proliferation rate: no significant change
[2]
  proliferation rate: no significant change
[3]
  proliferation rate: no significant change
[4]
  proliferation rate: no significant change
[5]; mouse myoblast, 10 nM and 100 nM treatment groups, 4 days, FIG. 5
  diameter of myotubes: increased
[5]; mouse myoblast, 10 nM and 100 nM, 4 days, FIG. 6
  creatine kinase activity: significantly increased
[5]; mouse myoblasts, differentiation medium, quercetin 10 nM, antioxidant supplement diluted 1,000-fold, FIG. 8B
  creatine kinase activity increase compared to the control group (Con): 17%
[6]; [10]
  diameter of myotubes: increased
[6]; 10 nM and 100 nM, FIG. 6
  creatine kinase activity: significantly increased
[7]; [10]
  diameter of myotubes: increased
[7]; 10 nM and 100 nM, FIG. 6
  creatine kinase activity: significantly increased
[8]; [10]
  diameter of myotubes: increased
[8]; 10 nM and 100 nM, FIG. 6
  creatine kinase activity: significantly increased
[9]; bovine muscle stem cells
  MYH expression: significantly increased
  MYOD expression: significantly increased
  MYOG expression: significantly increased
[9]; chicken muscle stem cells
  MYH expression: significantly increased
  MYOG expression: significantly increased
[9]; mouse myoblasts
  MYH expression: significantly increased
  MYOD expression: significantly increased
  MYOG expression: significantly increased
[9]; porcine muscle stem cells
  MYH expression: significantly increased
  MYOD expression: significantly increased
  MYOG expression: significantly increased

Reference: patent EP4685228A1, “MEDIUM COMPOSITION FOR PROMOTING MUSCLE CELL DIFFERENTIATION COMPRISING QUERCETIN AS ACTIVE INGREDIENT” (Industry Academic Cooperation Foundation of Yeungnam …, priority 2023, dated 2024)
